Source: article PMC8596838, “Xylose‐Configured Cyclophellitols as Selective Inhibitors for Glucocerebrosidase” (Chembiochem, 2021)

Columns and labels:
Format in all cases: biochemical
Conditions in all cases: cell lysate, 30 min incubation
[1] = target: T1, GBA (Homo sapiens, UniProt P04062); assay: Competitive ABPP (cABPP) with ABP 10 in HEK293T cell lysates, GBA
T1 construct: HEK293T cells that contain endogenous GBA; endogenous in cells; host or cells: HEK293T (ATCC CRL-3216) overexpressing GBA2 and GBA3
T1 sequence (P04062 40-536): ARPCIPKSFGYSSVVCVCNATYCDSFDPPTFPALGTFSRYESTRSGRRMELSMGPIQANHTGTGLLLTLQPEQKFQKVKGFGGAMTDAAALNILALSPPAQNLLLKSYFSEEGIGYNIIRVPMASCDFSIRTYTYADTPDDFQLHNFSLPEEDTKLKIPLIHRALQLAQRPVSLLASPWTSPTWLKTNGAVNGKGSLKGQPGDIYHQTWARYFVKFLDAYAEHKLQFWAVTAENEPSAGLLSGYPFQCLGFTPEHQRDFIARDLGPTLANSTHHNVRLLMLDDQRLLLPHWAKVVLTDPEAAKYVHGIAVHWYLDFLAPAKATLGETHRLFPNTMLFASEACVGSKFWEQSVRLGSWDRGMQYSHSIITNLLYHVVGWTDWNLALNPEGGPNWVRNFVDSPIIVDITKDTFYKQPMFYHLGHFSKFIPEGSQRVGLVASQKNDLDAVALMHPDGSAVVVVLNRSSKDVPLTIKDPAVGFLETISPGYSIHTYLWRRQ
Description: (§1) In the first instance, the inhibitory potency of 1 and 2 for GBA, GBA2, and GBA3 was assessed by competitive activity‐based protein profiling (cABPP). For this, we first generated HEK293T cells that contain endogenous GBA and overexpress human GBA2 and GBA3.
(§2) Figure 3 Selectivity of compounds visualized by competitive ABPP labeling of β‐D‐glucosidase. Lysates of HEK293T cells expressing human GBA, GBA2 and GBA3 were incubated with compounds 1–5 at indicated concentrations for 30 min, following by cABPP with ABP 10.
(§3) ABP labeling procedure: Glycosidases were labeled with excess fluorescent ABPs at optimum conditions. ABP labeling was performed at 37 °C for 30 min for all materials (if not otherwise stated), in a total sample volume of 20–40 μL and 0.5–1 % DMSO concentration. GBA was labeled with 200 nM ABP 9 (pH 5.2, 0.1 % (v/v) Triton‐100, 0.2 % (w/v) sodium taurocholate), or labeled together with GBA2 using 200 nM β‐D‐glucose‐configured aziridine ABP 10 at pH 5.8, or labeling together with GBA2 and GBA3 using 200 nM β‐D‐glucose‐configured aziridine ABP 10 at pH 6.0. After ABP incubation, proteins were denatured by boiling the samples with 5× Laemmli buffer (50 % (v/v) 1 M Tris‐HCl, pH 6.8, 50 % (v/v) 100 % glycerol, 10 % (w/v) DTT, 10 % (w/v) SDS, 0.01 % (w/v) bromophenol blue) for 5 min at 98 °C, and separated by electrophoresis on 10 % (w/v) SDS‐PAGE gels running continuously at 90 V. Wet slab‐gels were scanned on fluorescence using the Typhoon FLA 9500 (GE Healthcare) at λEX 473 nm and λEM≥510 nm for green fluorescent ABP 8; and at λEX 635 nm and λEM≥665 nm for ABP 6, 9 and 10. ABP‐emitted fluorescence was quantified using ImageQuant software (GE Healthcare, Chicago, IL, USA) and curve‐fitted using Prism 8.0 (GraphPad Software). After fluorescence scanning, SDS‐PAGE gels were stained for total protein with Coomassie G250 and scanned on a ChemiDoc MP imager (Bio‐Rad, Hercules, CA, USA).[25]

[2] = target: T2, GBA2 (Homo sapiens, UniProt Q9HCG7); assay: Competitive ABPP (cABPP) with ABP 10 in HEK293T cell lysates, GBA2
T2 construct: expressed in transfected cells; host or cells: HEK293T (GBA/GBA2 KO background for the fluorogenic assay; endogenous-GBA background with GBA2 and GBA3 overexpressed for ABPP and intact-cell assays)
T2 sequence (Q9HCG7 1-927): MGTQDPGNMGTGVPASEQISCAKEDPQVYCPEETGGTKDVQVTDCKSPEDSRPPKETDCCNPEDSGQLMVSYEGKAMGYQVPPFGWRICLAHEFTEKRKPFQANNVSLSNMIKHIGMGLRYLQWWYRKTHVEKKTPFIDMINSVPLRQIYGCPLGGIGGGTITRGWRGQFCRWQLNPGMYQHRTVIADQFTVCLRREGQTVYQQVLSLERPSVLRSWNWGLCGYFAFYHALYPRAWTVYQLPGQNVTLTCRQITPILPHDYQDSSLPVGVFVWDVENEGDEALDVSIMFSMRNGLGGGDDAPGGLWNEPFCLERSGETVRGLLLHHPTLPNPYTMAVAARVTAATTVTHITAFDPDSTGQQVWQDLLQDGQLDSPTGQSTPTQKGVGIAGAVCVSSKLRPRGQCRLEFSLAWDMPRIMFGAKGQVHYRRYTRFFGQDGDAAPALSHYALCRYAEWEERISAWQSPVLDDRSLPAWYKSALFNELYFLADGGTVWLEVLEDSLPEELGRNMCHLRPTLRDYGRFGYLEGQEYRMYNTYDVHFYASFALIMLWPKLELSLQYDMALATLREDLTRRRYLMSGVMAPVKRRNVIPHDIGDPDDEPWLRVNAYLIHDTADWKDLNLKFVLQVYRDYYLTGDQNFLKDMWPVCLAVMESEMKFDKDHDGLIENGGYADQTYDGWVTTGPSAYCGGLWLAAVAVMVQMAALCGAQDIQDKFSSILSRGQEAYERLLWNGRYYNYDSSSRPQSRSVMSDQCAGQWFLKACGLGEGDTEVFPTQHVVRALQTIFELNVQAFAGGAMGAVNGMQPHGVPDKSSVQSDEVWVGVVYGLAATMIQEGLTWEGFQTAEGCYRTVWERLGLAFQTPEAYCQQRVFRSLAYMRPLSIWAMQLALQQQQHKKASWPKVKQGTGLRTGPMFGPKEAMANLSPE
Description: as §1, §2, §3

[3] = target: T3, GBA3 (Homo sapiens, UniProt Q9H227); assay: Competitive ABPP (cABPP) with ABP 10 in HEK293T cell lysates, GBA3
T3 construct: expressed in transfected cells; host or cells: HEK293T (GBA/GBA2 KO background for the fluorogenic assay; endogenous-GBA background with GBA2 and GBA3 overexpressed for ABPP and intact-cell assays)
T3 sequence (Q9H227 1-469): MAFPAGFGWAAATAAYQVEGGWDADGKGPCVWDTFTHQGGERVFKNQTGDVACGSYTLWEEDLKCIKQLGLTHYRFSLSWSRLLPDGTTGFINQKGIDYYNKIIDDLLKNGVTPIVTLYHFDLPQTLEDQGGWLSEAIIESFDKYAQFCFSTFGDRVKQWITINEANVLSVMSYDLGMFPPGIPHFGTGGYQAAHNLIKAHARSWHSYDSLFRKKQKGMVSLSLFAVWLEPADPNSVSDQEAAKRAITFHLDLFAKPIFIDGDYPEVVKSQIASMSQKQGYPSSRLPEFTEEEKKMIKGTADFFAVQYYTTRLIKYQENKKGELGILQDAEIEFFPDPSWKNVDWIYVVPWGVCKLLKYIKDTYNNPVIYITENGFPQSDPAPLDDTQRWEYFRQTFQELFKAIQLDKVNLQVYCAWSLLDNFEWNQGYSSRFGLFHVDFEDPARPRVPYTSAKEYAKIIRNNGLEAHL
Description: as §1, §2, §3

Row | competition of ABP 10 labeling of GBA2 [2] | Structure (SMILES) | concentration competing ABP 10 labeling of GBA [1] | competition of ABP 10 labeling of GBA3 [3] | concentration competing ABP 10 labeling of GBA2 [2] | competition of ABP 10 labeling of GBA [1]
1 | but not that of GBA2 or GBA3 | O[C@@H]1[C@@H](O)[C@H](O)C[C@H]2O[C@@H]12 [compound 1, xylo‐cyclophellitol] | 10 to 100 µM | but not that of GBA2 or GBA3 | – | –
2 | – | O[C@@H]1[C@@H](O)[C@H](O)C[C@H]2N[C@@H]12 [compound 2, β‐D‐xylo‐Cyclophellitol aziridine] | 1 to 10 µM | – | 100 µM | –
3 | – | OC[C@@H]1[C@@H](O)[C@H](O)[C@@H](O)[C@@H]2O[C@H]12 [compound 3, cyclophellitol] | 0.1 to 1 µM | with less potency | 0.1 to 1 µM | –
4 | – | OC[C@@H]1[C@@H](O)[C@H](O)[C@@H](O)[C@@H]2N[C@H]12 [compound 4, cyclophellitol aziridine, reference compound] | 0.1 to 1 µM | with less potency | 0.1 to 1 µM | –
5 | – | [N-]=[N+]=NCCCCCCCCN1[C@H]2[C@H](O)[C@@H](O)[C@H](O)C[C@H]21 (stereo partly shown) [compound 5] | – | greatly enhances inhibitory potency | – | greatly enhances inhibitory potency
